Laboratory results taken from patent US20220289708A1, “SUBSTITUTED N-PHENYL URACILS, SALTS THEREOF AND THEIR USE AS HERBICIDAL AGENTS” (Bayer Aktiengesellschaft, priority 2019, published 2022).

Experiments:
Assay type in all cases: in vivo
[1] = system: Abutilon theophrasti; assay: Post-emergence herbicidal action; conditions: rated visually after about 3 weeks vs untreated controls
Method: (§1) a. Post-Emergence Herbicidal Action and Crop Plant Compatibility Seeds of monocotyledonous and dicotyledonous weeds and crop plants were placed in sandy loam in plastic or wood-fiber pots, covered with soil and cultivated in a greenhouse under controlled growth conditions. 2 to 3 weeks after sowing, the test plants were treated at the one-leaf stage. The compounds of the invention, formulated in the form of wettable powders (WP) or as emulsion concentrates (EC), were then sprayed onto the green parts of the plants as aqueous suspension or emulsion with addition of 0.5% additive at a water application rate of 600 l/ha (converted). After the test plants had been kept in the greenhouse under optimum growth conditions for about 3 weeks, the activity of the preparations was rated visually in comparison to untreated controls. For example, 100% activity=the plants have died, 0% activity=like control plants. Tables A1 to A15 below show the effects of selected compounds of the general formula (I) according to Tables I.1 to I.36 on various harmful plants and at an application rate corresponding to 20 g/ha and less, which were obtained by the experimental procedure mentioned above.

[2] = system: Alopecurus myosuroides; assay: Post-emergence herbicidal action; conditions: rated visually after about 3 weeks vs untreated controls
Method: as §1

[3] = system: Amaranthus retroflexus; assay: Post-emergence herbicidal action; conditions: rated visually after about 3 weeks vs untreated controls
Method: as §1

[4] = system: Avena fatua; assay: Post-emergence herbicidal action; conditions: application rate 20 g/ha, rated visually after about 3 weeks vs untreated controls
Method: as §1

[5] = system: Digitaria sanguinalis; assay: Post-emergence herbicidal action; conditions: rated visually after about 3 weeks vs untreated controls
Method: as §1

[6] = system: Echinochloa crus-galli; assay: Post-emergence herbicidal action; conditions: rated visually after about 3 weeks vs untreated controls
Method: as §1

[7] = system: Hordeum murinum; assay: Post-emergence herbicidal action
Method: as §1

[8] = system: Lolium rigidum; assay: Post-emergence herbicidal action; conditions: rated visually after about 3 weeks vs untreated controls
Method: as §1

[9] = system: Matricaria inodora; assay: Post-emergence herbicidal action; conditions: rated visually after about 3 weeks vs untreated controls
Method: as §1

[10] = system: Pharbitis purpurea; assay: Post-emergence herbicidal action; conditions: rated visually after about 3 weeks vs untreated controls
Method: as §1

[11] = system: Polygonum convolvulus; assay: Post-emergence herbicidal action
Method: as §1

[12] = system: Setaria viridis; assay: Post-emergence herbicidal action; conditions: rated visually after about 3 weeks vs untreated controls
Method: as §1

[13] = system: Stellaria media; assay: Post-emergence herbicidal action; conditions: application rate 5 g/ha, rated visually after about 3 weeks vs untreated controls
Method: as §1

[14] = system: Veronica persica; assay: Post-emergence herbicidal action
Method: as §1

[15] = system: Viola tricolor; assay: Post-emergence herbicidal action
Method: as §1

[16] = system: Oryza sativa; assay: Post-emergence crop plant compatibility; conditions: application rate 5 g/ha
Method: a. Post-Emergence Herbicidal Action and Crop Plant Compatibility
as §1, with “Seeds” for “a. Post-Emergence Herbicidal Action and Crop Plant Compatibility Seeds”, “plants.” for “plants. Tables A1 to A15 below show the effects of selected compounds of the general formula (I) according to Tables I.1 to I.36 on various harmful plants and at an application rate corresponding to 20 g/ha and less, which were obtained by the experimental procedure mentioned above.”
Tables A16 to A19 below show the crop plant compatibilities of selected compounds of the general formula (I) according to Tables I.1 to I.36 at an application rate corresponding to 5 g/ha or 20 g/ha, which were obtained in experiments according to the experimental procedure mentioned above. Here, the observed effects on selected crop plants are stated in comparison to the untreated controls (values in %).

Structure (SMILES)	Abutilon theophrasti (efficacy in %) ([1]; application rate 20 g/ha) [%]	Alopecurus myosuroides (efficacy in %) ([2]; application rate 20 g/ha) [%]	Amaranthus retroflexus (efficacy in %) ([3]; application rate 20 g/ha) [%]	Avena fatua (efficacy in %) [4] [%]	Digitaria sanguinalis (efficacy in %) ([5]; application rate 20 g/ha) [%]	Echinochloa crus-galli (efficacy in %) ([6]; application rate 20 g/ha) [%]	Lolium rigidum (efficacy in %) ([8]; application rate 20 g/ha) [%]	Matricaria inodora (efficacy in %) ([9]; application rate 5 g/ha) [%]	Pharbitis purpurea (efficacy in %) ([10]; application rate 5 g/ha) [%]	Polygonum convolvulus (efficacy in %) ([11]; application rate 5 g/ha) [%]	Setaria viridis (efficacy in %) ([12]; application rate 5 g/ha) [%]	Stellaria media (efficacy in %) [13] [%]	Veronica persica (efficacy in %) ([14]; application rate 5 g/ha) [%]	Viola tricolor (efficacy in %) ([15]; application rate 5 g/ha) [%]	Abutilon theophrasti (efficacy in %) ([1]; application rate 5 g/ha) [%]	Alopecurus myosuroides (efficacy in %) ([2]; application rate 5 g/ha) [%]	Amaranthus retroflexus (efficacy in %) ([3]; application rate 5 g/ha) [%]	Digitaria sanguinalis (efficacy in %) ([5]; application rate 5 g/ha) [%]	Echinochloa crus-galli (efficacy in %) ([6]; application rate 5 g/ha) [%]	Hordeum murinum (efficacy in %) ([7]; application rate 20 g/ha) [%]	other results
COCCOC(=O)COc1ncccc1Sc1cc(-n2c(=O)cc(C(F)(F)F)n(C)c2=O)c(F)cc1Cl [I.1-1, 2-Methoxyethyl {[3-({2-chloro-4-fluoro-5-[3-methyl-2,6-dioxo-4-(trifluoromethyl)-3,6-dihydropyrimidin-1(2H)-yl]phenyl}sulfanyl)pyridin-2-yl]oxy}acetate]	100	80	100	80	100	100	80	100	100	100	100	90	100	100	–	–	–	–	–	–	Hordeum murinum (efficacy in %) ([7]; application rate 5 g/ha): 80%
COCCOC(=O)CSc1ncccc1Sc1cc(-n2c(=O)cc(C(F)(F)F)n(C)c2=O)c(F)cc1Cl [I.10-1]	–	–	–	80	–	–	–	90	80	100	80	100	–	100	80	80	80	80	100	90	Veronica persica (efficacy in %) ([14]; application rate 20 g/ha): 90%
COCCCOC(=O)CSc1ncccc1Sc1cc(-n2c(=O)cc(C(F)(F)F)n(C)c2=O)c(F)cc1Cl [I.10-26]	–	–	–	–	100	100	80	–	100	100	100	100	80	100	100	80	100	–	–	–	Matricaria inodora (efficacy in %) ([9]; application rate 20 g/ha): 100%
COCCCOC(=O)COc1ncccc1Oc1cc(-n2c(=O)cc(C(F)(F)F)n(C)c2=O)c(F)cc1Cl [I.15-26, 3-Methoxypropyl [(3-{2-chloro-4-fluoro-5-[3-methyl-2,6-dioxo-4-(trifluoromethyl)-3,6-dihydropyrimidin-1(2H)-yl]phenoxy}pyridin-2-yl)oxy]acetate]	–	90	–	90	–	–	–	–	100	100	100	100	100	100	100	–	100	100	100	100	Lolium rigidum (efficacy in %) ([8]; application rate 5 g/ha): 80%
Cn1c(C(F)(F)F)cc(=O)n(-c2cc(Oc3cc(F)cnc3OCC(=O)OCC#N)c(Cl)cc2F)c1=O [I.36-176]	100	100	100	80	100	100	80	–	–	–	–	–	–	–	–	–	–	–	–	–	Matricaria inodora (efficacy in %) ([9]; application rate 20 g/ha): 90%; Pharbitis purpurea (efficacy in %) ([10]; application rate 20 g/ha): 100%; Polygonum convolvulus (efficacy in %) ([11]; application rate 20 g/ha): 100%; Setaria viridis (efficacy in %) ([12]; application rate 20 g/ha): 100%; Veronica persica (efficacy in %) ([14]; application rate 20 g/ha): 90%; Viola tricolor (efficacy in %) ([15]; application rate 20 g/ha): 100%; Oryza sativa (efficacy in %) [16]: 20%
